{
  "source": "paper PMC10040441",
  "about": "(Nature biomedical engineering, 2023)",
  "key": {"[1]": {"target": "amyloid-β (Aβ42) aggregates (Homo sapiens, UniProt P05067)", "sequence (P05067 672-713)": "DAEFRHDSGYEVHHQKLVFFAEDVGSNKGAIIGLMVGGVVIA", "test": "fluorescence intensity binding assay with synthetic Aβ[…] aggregates"}, "[2]": {"target": "amyloid-β (Aβ40) aggregates (Homo sapiens, UniProt P05067)", "sequence (P05067 672-711)": "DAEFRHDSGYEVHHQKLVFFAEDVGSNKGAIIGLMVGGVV", "test": "fluorescence intensity binding assay with synthetic Aβ[…] aggregates"}},
  "data": [
    {"smiles": "CC1(C)C(/C=C/C2=C(c3ccc(CCC(=O)O)cc3)C(=C/C=C3/N(CCC[N+](C)(C)C)c4ccc(S(=O)(=O)O)cc4C3(C)C)/CCC2)=[N+](CCC[N+](C)(C)C)c2ccc(S(=O)(=O)O)cc21", "note": "[ZW800–1C]", "values": [
      {"measurement": "Kd", "setting": "[1]", "result": "78.9 ± 12.3", "unit": "nM"},
      {"measurement": "Kd", "setting": "[2]", "result": "43.7 ± 5.8", "unit": "nM"}
    ]}
  ]
}
